Assay results from US20230406838A1, “MUTANT SELECTIVE EGFR INHIBITORS AND METHODS OF USE THEREOF” (Dana-Farber Cancer Institute, Inc., priority 2020, published 2023).

How the values were obtained:
[1] = target: EGFR L858R/T790M Ba/F3 cells (Homo sapiens, UniProt P00533, T790M/L858R, cells depend on it); assay: Ba/F3 cell proliferation (Cell Titer Glo), L858R/T790M; type: cell-based, murine; settings: Ba/F3, 72 hours, value in parentheses, meaning not explained, read-out: L858R/T790M, inhibition of growth (value in parentheses)
Description: (§1) 100 units/mL streptomycin. The EGFR I941R mutation was introduced via site directed mutagenesis using the Quick Change Site-Directed Mutagenesis kit (Stratagene; La Jolla, CA) according to the manufacturer's instructions. All constructs were confirmed by DNA sequencing. The constructs were shuttled into the retroviral vector JP1540 using the Cre-recombination system (Agilent Technologies, Santa Clara, CA). […] Stable clones were obtained by selection in puromycin (2 μg/ml).
(§2) Growth and inhibition of growth was assessed by the Cell Titer Glo assay (Promega, Madison, WI) and was performed according to the manufacturer's instructions. The Cell Titer Glo assay is a luminescence-based method used to determine the number of viable cells based on quantitation of the ATP present, which is directly proportional to the amount of metabolically active cells present. […] All experimental points were set up in triplicates in 384-well plates and all experiments were repeated at least three times. […] The curves were fitted using a non-linear regression model with a sigmoidal dose response.

[2] = target: EGFR L858R/T790M/C797S Ba/F3 cells (Homo sapiens, UniProt P00533, T790M/C797S/L858R, cells depend on it); assay: Ba/F3 cell proliferation (Cell Titer Glo), L858R/T790M/C797S; type: cell-based, murine; settings: Ba/F3, 72 hours, value in parentheses, meaning not explained, read-out: L858R/T790M/C797S, inhibition of growth (value in parentheses)
Description: as §1, §2

EGFR L858R/T790M = EGFR L858R/T790M (Homo sapiens, UniProt P00533, L858R/T790M); assay: HTRF-based EGFR biochemical assay, L858R/T790M; settings: 100 μM ATP, enzyme 0.02 nM
Description: (§3) EGFR biochemical activity measurements were carried out using the homogeneous time-resolved fluorescence (HTRF) assay (Cisbio). Inhibitors and DMSO normalizations were first dispensed to empty black low-volume 384-well plates (Corning) with D300 digital liquid dispenser (HP). All reactions were carried out at room temperature and solutions were added to plates with a Multidrop Combi Reagent Dispenser (ThermoFisher). The reaction mixture (10 μL final volume) contained 1 μM tyrosine kinase peptide-biotin substrate and mutant EGFR in a reaction buffer (50 mM HEPES pH 7.0, 5 mM MgCl2, 1 mM MnCl2, 0.01% BSA, 2 mM TCEP, 0.1 mM NaVO4). […] Enzyme reaction solution (2× concentrations, 5 μL) was added to 384-well plates containing compounds and incubated for 30 mins. Enzyme reactions were initiated with the addition of 5 μL of ATP to a final concentration of 100 μM and reacted for 20 mins.

EGFR L858R Ba/F3 cells = EGFR L858R Ba/F3 cells (Homo sapiens, UniProt P00533, L858R, cells depend on it); assay: Ba/F3 cell proliferation (Cell Titer Glo), L858R; type: cell-based, murine; settings: Ba/F3, 72 hours, value in parentheses, meaning not explained, read-out: L858R, inhibition of growth (value in parentheses)
Description: as §1, §2

WT EGFR Ba/F3 cells = WT EGFR Ba/F3 cells (Homo sapiens, UniProt P00533, cells depend on it, form not given); assay: Ba/F3 cell proliferation (Cell Titer Glo), WT; type: cell-based, murine; settings: Ba/F3, 72 hours, value in parentheses, meaning not explained, read-out: WT, inhibition of growth (value in parentheses)
Description: as §1, §2

EGFR WT = EGFR WT (Homo sapiens, UniProt P00533); assay: HTRF-based EGFR biochemical assay, WT; settings: 100 μM ATP, enzyme 5 nM
EGFR L858R = EGFR L858R (Homo sapiens, UniProt P00533, L858R); assay: HTRF-based EGFR biochemical assay, L858R; settings: 100 μM ATP, enzyme 0.1 nM
Description: as §3

EGFR L858R/T790M/C797S = EGFR L858R/T790M/C797S (Homo sapiens, UniProt P00533, C797S/L858R/T790M); assay: HTRF-based EGFR biochemical assay, L858R/T790M/C797S; settings: 100 μM ATP, enzyme 0.02 nM
Description: as §3

Chain of EGFR L858R/T790M/C797S Ba/F3 cells (P00533 whole entry T790M/C797S/L858R): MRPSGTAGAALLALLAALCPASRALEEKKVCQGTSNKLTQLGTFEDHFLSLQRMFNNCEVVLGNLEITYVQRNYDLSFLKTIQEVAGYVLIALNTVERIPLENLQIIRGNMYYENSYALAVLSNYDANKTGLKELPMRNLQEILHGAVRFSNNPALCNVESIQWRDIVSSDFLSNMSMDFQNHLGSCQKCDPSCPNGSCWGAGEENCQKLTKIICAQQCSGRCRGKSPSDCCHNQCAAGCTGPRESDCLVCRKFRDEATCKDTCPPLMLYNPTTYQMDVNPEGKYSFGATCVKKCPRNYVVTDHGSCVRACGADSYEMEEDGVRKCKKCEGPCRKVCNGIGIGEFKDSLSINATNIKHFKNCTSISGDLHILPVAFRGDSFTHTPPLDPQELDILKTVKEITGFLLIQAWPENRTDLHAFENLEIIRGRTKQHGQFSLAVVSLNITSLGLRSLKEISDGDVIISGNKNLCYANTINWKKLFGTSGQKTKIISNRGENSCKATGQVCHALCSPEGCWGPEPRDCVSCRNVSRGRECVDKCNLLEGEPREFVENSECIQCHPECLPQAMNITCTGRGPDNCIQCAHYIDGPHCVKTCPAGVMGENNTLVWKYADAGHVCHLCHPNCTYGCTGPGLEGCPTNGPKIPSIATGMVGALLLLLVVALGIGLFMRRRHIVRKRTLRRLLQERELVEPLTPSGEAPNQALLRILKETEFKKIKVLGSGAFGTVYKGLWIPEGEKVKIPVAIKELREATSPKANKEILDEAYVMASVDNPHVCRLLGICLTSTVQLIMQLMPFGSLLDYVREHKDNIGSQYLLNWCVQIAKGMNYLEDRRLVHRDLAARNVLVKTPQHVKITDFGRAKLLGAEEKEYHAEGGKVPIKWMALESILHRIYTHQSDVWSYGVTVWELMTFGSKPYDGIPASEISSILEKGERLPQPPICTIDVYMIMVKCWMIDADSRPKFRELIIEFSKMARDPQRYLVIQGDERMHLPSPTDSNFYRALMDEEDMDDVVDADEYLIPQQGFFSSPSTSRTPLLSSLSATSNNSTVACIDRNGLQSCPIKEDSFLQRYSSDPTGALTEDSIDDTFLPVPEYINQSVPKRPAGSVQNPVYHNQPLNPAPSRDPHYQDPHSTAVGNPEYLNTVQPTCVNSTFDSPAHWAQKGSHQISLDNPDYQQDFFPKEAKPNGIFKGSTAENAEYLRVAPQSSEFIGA
Chain of EGFR L858R Ba/F3 cells (P00533 whole entry L858R): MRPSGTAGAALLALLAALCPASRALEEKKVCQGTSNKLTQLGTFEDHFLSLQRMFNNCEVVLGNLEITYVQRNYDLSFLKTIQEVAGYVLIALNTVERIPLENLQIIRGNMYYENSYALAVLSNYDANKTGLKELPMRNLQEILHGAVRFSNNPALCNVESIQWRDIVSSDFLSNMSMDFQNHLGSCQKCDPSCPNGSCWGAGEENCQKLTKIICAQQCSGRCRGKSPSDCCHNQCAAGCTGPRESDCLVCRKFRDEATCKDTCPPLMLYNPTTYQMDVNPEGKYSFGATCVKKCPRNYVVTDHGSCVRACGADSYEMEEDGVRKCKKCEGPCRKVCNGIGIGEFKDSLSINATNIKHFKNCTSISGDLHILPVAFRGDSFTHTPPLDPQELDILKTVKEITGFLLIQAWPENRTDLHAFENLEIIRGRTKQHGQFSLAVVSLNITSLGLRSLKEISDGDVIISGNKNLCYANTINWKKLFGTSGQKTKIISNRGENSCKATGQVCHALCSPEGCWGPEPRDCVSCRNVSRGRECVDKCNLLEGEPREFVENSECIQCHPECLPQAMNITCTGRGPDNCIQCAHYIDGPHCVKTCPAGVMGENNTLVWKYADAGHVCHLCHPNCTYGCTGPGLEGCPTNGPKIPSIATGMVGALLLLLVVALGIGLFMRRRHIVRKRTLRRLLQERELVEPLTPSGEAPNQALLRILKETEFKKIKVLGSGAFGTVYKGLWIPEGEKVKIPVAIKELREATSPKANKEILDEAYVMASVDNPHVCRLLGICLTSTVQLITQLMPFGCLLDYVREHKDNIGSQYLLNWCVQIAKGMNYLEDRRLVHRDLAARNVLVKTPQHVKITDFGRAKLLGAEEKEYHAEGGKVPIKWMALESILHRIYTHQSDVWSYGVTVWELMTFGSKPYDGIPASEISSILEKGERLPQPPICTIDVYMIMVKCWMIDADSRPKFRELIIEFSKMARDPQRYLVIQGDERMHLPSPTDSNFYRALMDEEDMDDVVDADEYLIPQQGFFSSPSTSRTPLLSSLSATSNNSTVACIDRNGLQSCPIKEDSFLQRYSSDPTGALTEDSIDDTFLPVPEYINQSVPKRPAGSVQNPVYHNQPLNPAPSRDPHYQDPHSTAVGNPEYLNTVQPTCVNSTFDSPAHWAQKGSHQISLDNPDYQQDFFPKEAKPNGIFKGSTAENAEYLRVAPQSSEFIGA
Chain of EGFR L858R/T790M Ba/F3 cells (P00533 whole entry T790M/L858R): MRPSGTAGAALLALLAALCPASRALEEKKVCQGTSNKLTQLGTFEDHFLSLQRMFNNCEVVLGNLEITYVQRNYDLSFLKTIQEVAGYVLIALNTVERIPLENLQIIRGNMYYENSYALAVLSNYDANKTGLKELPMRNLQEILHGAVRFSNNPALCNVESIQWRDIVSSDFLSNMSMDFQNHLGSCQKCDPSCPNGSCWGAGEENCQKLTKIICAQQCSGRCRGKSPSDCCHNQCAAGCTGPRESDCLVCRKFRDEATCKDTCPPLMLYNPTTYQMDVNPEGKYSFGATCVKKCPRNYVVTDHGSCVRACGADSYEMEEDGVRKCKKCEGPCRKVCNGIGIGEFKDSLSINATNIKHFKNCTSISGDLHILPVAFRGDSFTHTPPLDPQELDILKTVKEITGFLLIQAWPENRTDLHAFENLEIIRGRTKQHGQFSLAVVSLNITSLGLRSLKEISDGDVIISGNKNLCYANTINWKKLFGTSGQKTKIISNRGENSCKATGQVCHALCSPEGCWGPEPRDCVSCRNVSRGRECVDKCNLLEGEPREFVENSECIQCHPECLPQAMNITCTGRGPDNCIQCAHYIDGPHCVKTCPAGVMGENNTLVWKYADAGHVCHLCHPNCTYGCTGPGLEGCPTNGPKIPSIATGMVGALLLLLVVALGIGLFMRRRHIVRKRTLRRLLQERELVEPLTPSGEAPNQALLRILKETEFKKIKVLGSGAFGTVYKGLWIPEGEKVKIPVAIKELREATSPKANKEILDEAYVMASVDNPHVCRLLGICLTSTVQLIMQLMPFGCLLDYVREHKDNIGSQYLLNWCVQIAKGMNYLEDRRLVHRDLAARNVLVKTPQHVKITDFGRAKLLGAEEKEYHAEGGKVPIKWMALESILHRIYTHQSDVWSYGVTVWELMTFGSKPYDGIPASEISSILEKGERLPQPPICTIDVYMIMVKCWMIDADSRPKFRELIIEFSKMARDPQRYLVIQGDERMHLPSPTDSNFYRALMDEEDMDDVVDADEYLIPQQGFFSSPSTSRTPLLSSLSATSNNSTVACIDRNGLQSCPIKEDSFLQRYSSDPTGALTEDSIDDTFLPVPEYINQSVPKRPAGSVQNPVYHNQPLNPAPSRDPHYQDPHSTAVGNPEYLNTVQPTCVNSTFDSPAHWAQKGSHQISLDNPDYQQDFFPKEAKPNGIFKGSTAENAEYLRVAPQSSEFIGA
Chain of WT EGFR Ba/F3 cells (P00533 whole entry, change not shown): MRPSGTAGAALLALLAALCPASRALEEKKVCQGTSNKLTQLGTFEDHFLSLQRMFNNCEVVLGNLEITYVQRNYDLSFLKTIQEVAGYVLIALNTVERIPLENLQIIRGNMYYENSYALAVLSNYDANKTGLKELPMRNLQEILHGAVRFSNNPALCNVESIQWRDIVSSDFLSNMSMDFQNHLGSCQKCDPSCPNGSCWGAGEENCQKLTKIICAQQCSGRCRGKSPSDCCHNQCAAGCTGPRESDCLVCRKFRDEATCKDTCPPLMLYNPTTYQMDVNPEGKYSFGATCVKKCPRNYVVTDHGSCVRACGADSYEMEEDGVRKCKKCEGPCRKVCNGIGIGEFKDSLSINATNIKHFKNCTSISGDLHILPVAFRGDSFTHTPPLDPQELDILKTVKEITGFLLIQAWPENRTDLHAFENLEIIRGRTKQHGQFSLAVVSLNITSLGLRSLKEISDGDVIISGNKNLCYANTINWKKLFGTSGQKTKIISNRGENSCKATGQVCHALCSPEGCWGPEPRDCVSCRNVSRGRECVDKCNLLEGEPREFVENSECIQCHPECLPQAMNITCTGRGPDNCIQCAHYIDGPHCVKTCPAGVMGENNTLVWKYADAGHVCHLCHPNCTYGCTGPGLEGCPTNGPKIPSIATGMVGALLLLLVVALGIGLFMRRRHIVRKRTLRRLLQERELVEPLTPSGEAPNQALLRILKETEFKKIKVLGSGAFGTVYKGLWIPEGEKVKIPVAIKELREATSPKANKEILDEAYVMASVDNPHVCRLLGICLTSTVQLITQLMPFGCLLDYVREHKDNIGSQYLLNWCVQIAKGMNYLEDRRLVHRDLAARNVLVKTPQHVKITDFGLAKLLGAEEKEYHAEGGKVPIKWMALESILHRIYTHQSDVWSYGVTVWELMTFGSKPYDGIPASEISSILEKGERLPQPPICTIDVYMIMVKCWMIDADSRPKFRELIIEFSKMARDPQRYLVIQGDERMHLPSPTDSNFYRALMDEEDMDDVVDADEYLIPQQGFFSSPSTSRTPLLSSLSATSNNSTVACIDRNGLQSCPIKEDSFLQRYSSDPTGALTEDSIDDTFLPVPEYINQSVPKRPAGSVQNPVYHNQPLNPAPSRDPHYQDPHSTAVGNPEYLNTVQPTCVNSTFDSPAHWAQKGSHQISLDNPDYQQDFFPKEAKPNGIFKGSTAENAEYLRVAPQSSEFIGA

Row | Structure (SMILES) | EC50 [1] | EC50 [2] | IC50 (EGFR L858R/T790M) | EC50 (EGFR L858R Ba/F3 cells) | EC50 (WT EGFR Ba/F3 cells) | IC50 (EGFR WT) | IC50 (EGFR L858R) | IC50 (EGFR L858R/T790M/C797S)
1 | CSc1nc(-c2cccc(NC(=O)c3ccccc3CN3Cc4ccccc4C3=O)c2)c(-c2ccnc(NC(C)=O)c2)[nH]1 [Compound 047, N-(3-(5-(2-acetamidopyridin-4-yl)-2-(methylthio)-1H-imidazol-4-yl)phenyl)-2-((1-oxoisoindolin-2-yl)methyl)benzamide] | > 10000 nM | > 10000 nM | 759 nM | > 10000 nM | > 4300 nM | > 100000 nM | 96 nM | 610 nM
2 | CSc1nc(-c2cccc(NC(=O)c3ccccc3CN3C(=O)c4ccccc4C3=O)c2)c(-c2ccnc(Nc3ccccc3)c2)[nH]1 [Compound 067, 2-((1,3-dioxoisoindolin-2-yl)methyl)-N-(3-(2-(methylthio)-5-(2-(phenylamino)pyridin-4-yl)-1H-imidazol-4-yl)phenyl)benzamide] | > 10000 nM | > 10000 nM |  | > 8700 nM | > 3300 nM |  |  | 
3 | CSc1nc(-c2cccc(NC(=O)c3c(F)ccc(O)c3CN3C(=O)c4ccccc4C3=O)c2)c(-c2ccnc(Nc3ccccc3)c2)[nH]1 [Compound 068, 2-((1,3-dioxoisoindolin-2-yl)methyl)-6-fluoro-3-hydroxy-N-(3-(2-(methylthio)-5-(2-(phenylamino)pyridin-4-yl)-1H-imidazol-4-yl)phenyl)benzamide] | > 10000 nM | > 10000 nM |  | > 10000 nM | > 5600 nM |  |  | 

Second part, the compound after the results:

Row | EC50 [1] | EC50 [2] | IC50 (EGFR L858R/T790M) | EC50 (EGFR L858R Ba/F3 cells) | EC50 (WT EGFR Ba/F3 cells) | IC50 (EGFR WT) | IC50 (EGFR L858R) | IC50 (EGFR L858R/T790M/C797S) | Structure (SMILES)
4 | 2500 nM | > 10000 nM | 8 nM | 500 nM | > 4000 nM | 701 nM | 11 nM | 206 nM | C=CC(=O)Nc1ccc(OC)c(Nc2cc(-c3[nH]c(SC)nc3-c3cccc(NC(=O)c4ccccc4CN4Cc5ccccc5C4=O)c3)ccn2)c1 [Compound 064, N-(3-(5-(2-((5-acrylamido-2-methoxyphenyl)amino)pyridin-4-yl)-2-(methylthio)-1H-imidazol-4-yl)phenyl)-2-((1-oxoisoindolin-2-yl)methyl)benzamide]
5 | > 5600 nM | > 10000 nM |  | > 5300 nM | > 2100 nM |  |  |  | CSc1nc(-c2cccc(NC(=O)c3ccccc3CN3Cc4ccccc4C3=O)c2)c(-c2ccnc(Nc3ccccc3)c2)[nH]1 [Compound 069, N-(3-(2-(methylthio)-5-(2-(phenylamino)pyridin-4-yl)-1H-imidazol-4-yl)phenyl)-2-((1-oxoisoindolin-2-yl)methyl)benzamide]
